Key:
[1] = Kinetics of oxidation of the dihydro derivatives in brain homogenate; assay type: in vitro ADME, rat; details: pH 7.4, 37°C; for half-life: rat
Experimental: In Brain Homogenate: 2.0 g of rat brain tissue were homogenized in 10 ml of phosphate buffer, pH 7.4. The homogenate was centrifuged for 15 min at 3000 rpm, decanted, heated in a water bath at 50°C for 5 min and then centrifuged again. The supernatant solution was diluted to 100 ml with phosphate buffer, pH 7.4.
Reference Sample: 0.2 ml of methyl alcohol was diluted to 10 ml with the brain homogenate solution, and the solution was used to record the base line on Cary 219 spectrophotometer and as a reference for the dihydro derivative sample solution.
Dihydro Derivative Sample Solutions: 0.2 ml of 6.25 x 10-^4 M methanolic solution of the freshly prepared dihydro derivative was diluted to 10 ml with the brain homogenate solution. The mixture was scanned at 37 ° C from 400 nm to 300 nm every 10 min for 2 hrs on […] spectrophotometer.

[2] = Kinetics of oxidation of the dihydro derivatives in whole blood; assay type: in vitro ADME, human; details: 37°C; for half-life: human
Experimental: In Whole Blood: In each of 5 tubes, 0.1 ml of 10 x 10-^4 M methanolic solution of the freshly prepared dihydro derivative, was added 2 ml of fresh heparinized whole human blood and the tubes were kept at 37°C in a water bath. At the end of the time period to be investigated, 8 ml of acetonitrile was added, shaken vigorously and centrifuged. The extension of the supernatant solution at 350 nm was measured. A reference sample was made by addition of 0.1 ml of methyl alcohol instead of the sample solution following the same procedure.

[3] = Chemical oxidation by hydrogen peroxide and silver nitrate; assay type: physicochemical; details: 30% H2O2, UV spectrum
Experimental: The stability of the 1,4-dihydropyridine derivatives (5) was determined in the presence of the oxidizing agents, alcoholic AgN03 and hydrogen peroxide. The in vitro rates of oxidation of the 1,4-dihydropyridine derivative (5c) in 80% plasma, 20% brain homogenate, 20% liver homogenate and in whole blood were determined.
To 10 ml of 30% H202 was added 0.2 g of the dihydropyridine derivative (products of Examples 5 or 8). The mixture was stirred and samples were taken to check the UV spectrum.
To 5 ml of saturated methanolic AgN03 solution was added 1 ml of 5% methanolic solution of the dihydropyridine derivative. The mixture was shaken and left for 5 min for complete precipitation of silver, centrifuged and an aliquot was taken to check the UV spectrum. Complete oxidation to the quaternary salts was observed.

[4] = target: T1, COMT (catechol-O-methyltransferase) (Rattus norvegicus, UniProt P22734); assay: O-methyl metabolite formation by COMT in biological fluids; assay type: in vitro ADME; details: no methoxy derivatives detected in any of the biological fluids studied
T1 construct: from tissue; host or cells: rat brain homogenate (20%), rat liver homogenate (20%); also 80% plasma and whole citrated blood
T1 sequence (P22734 1-264): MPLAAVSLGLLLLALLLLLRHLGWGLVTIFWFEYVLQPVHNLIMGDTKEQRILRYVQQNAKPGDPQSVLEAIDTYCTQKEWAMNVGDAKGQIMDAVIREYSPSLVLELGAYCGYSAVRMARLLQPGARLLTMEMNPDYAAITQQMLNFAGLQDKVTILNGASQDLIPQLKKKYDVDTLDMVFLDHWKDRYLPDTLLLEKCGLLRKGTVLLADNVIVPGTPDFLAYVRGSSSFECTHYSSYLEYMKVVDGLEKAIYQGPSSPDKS
Experimental: In an attempt to ascertain whether any biotransformation of the free catechol is taking place by COMT (catechol-O-methyltransferase) either before or after oxidation, the possible O-methyl metabolites (9 and 10) were synthesized separately following Scheme 4 with 3-methoxytyramine hydrochloride as the starting material. [drawing 52] [drawing 53]
Figures 1-4 illustrate the results of such an investigation. The apparent half-lives for the disappearance of 5c in biological fluids at 37°C were calculated. […] The obtained values, 51 min (80% plasma), 17 min (20% brain homogenate), 18 min (whole citrated blood) and 6 min (20% liver homogenate), reflect an acceptable stability of the dihydro derivative 5c. The disappearance of 5c is accompanied by formation of some monoester (11) and dihydroxy dihydro form (5a) in all the media except the liver homogenate. The rate of hydrolysis of the first ester moiety is faster than the second and a reasonable amount of monoester 11 builds up with time. […] Thus, it is established that this derivative, 6a, is forming as the main product of the various interconversion routes and it is the direct precursor thus concluded to be locked in the brain in the in vivo experiment.

[5] = Lability of the catechol esters to hydrolysis; assay type: physicochemical; details: diacetyl derivatives
Excerpt: Attempts to prepare 7 by using dopamine free base were largely unsuccessful. As for the catechol protecting groups, the acetyl and pivalyl moieties were selected due to their rather different steric and partitioning parameters. Acylation could be accomplished with the acyl chlorides by using conventional methods. Reduction of the quaternaries (6a-c and 9) was accomplished by using sodium dithionite in mildly basic aqueous solution, (NaHC03). It was observed that the dihydro compound obtained in the case of the quaternary 6b gave a faint green color with ferric ions, indicating partial hydrolysis of at least one of the acetyl moieties during reduction, even in the cold, weakly basic solution used as a medium. The dihydropyridine derivatives isolated (5a-c and 10) were determined to have the expected 1,4-dihydropyridine structure, based on their NMR and UV spectra.
The dipivalyldihydro derivative (5c) was thoroughly investigated for its in vitro rates of disappearance and metabolic degradation in various biological fluids. It is evident that 5c represents a rather complex case, as besides oxidation, a two-step hydrolysis will also take place. Scheme 5 illustrates the interconversion of the possible components. [drawing 54]

serum prolactin = assay: In vivo effect on pituitary prolactin secretion (17-β-estradiol primed male rats); details: I.V. 1 mg/kg
Excerpt: Adult male rats (Charles Rivers, CD-1) weighing 200 to 225 g were provided food and water ad libitum for at least one week period to experimentation. To elevate serum prolactin levels, each rat received a single s.c. implant of a Silastic tube (1.57 mm interior diameter, 5 mm x 3.15 mm overall size) packed with crystalline 17-,8-estradiol. Two days later the rats were lightly anesthetized with ether and a small incision was made over the right jugular vein for intravenous (LV.) administration of the test drugs. Compound 6a was injected at a dose of 1 mg/kg body weight/ml saline and groups of six rats were decapitated at 15, 30, 60 and 120 min later to collect blood samples. Control rats (time 0) received an I.V. injection of the saline vehicle and were decapitated 30 min later. Compound 5c was dissolved in 10% ethanol in saline and was injected IV. Rats were decapitated at 15, 30 and 120 min later. Control (time 0) animals received the 10% ethanol vehicle and were sampled 30 min later.
Trunk blood was collected, allowed to clot for 2h and the serum was separated and stored at -20 ° C for subsequent assay for prolactin concentrations. Each serum sample was assayed in duplicate by the doubleantibody radioimmunoassay procedure described by the National Pituitary Agency Hormone Distribution Program. Serum prolactin concentrations are expressed in terms of the PRL-RP-2 reference preparation provided. The intraassay coefficient of variation for 10 replicate samples of pooled serum obtained from male rats was 13.8%.
The effects of compounds 5c and 6a on serum prolactin concentrations were evaluated by one-way analysis of variance and Student-Newman Keuls tests. A probability level of less than 0.05 was selected for significance. See FIGURE 7 and the discussion thereof hereinabove.

anterior pituitary (AP) = assay: In vitro evaluation of the prolactin inhibitory effect on incubated anterior pituitaries; assay type: cell-based, rats; details: for Prolactin release rate of the incubated AP-S: 37°C, average of 9 separate AP-S
Experimental: Adult female rats (Charles Rivers Lab.) weighing 225-250 g were maintained on food and water ad libitum. Animals were sacrificed by decapitation; their pituitary glands were quickly removed from the cranium. The anterior pituitary (AP) of each animal was dissected into two equal halves and placed into incubation media. (Gibco's Minimal Essential Media supplied by Grand Island Biological Co. was used.) The incubation was conducted at 37 °C, under continuous aeration (95% 02, 5% C02); the pH was 7.2. After one hour of preincubation, the media were discarded and replaced with fresh ones containing either DA ( 2 x 10-^8 M), 6a ( 2 x 10-^8) or ascorbic acid (10-^4 M). In all cases, one-half of AP received the test drug; the other, the ascorbate control. After one hour, samples were taken from the media and the remaining media were discarded. […] One hour later, the second samples were taken After the 3 h incubation period, each half AP's were weighed. The samples were diluted 1:50 with phosphate buffered saline and then assayed in triplicate by the radioimmunoassay method described. The data are given as ng prolactin released/mg wet weight/h. Paired Student's T-test was used to evaluate the significance of the inhibitory effects of the test drugs on prolactin secretion The control AP half and the drug treated half were employed in each paired comparison. See TABLE I and the discussion thereof hereinabove.

[6] = cited from earlier work

## CN1C=C(C(=O)NCCc2ccccc2)CC(C(=O)NCCc2ccccc2)=C1 [1-Methyl-3,5-di(N-β-phenethyl)carbamoyl-1,4-dihydropyridine]
[1]
  Kinetics of Oxidation (rate constant): 8.4 x 10^-6 n=6 r=.997
[1]; unit inferred
  half-life: 22.9 h
[2]
  Kinetics of Oxidation (rate constant): 4.9 x 10^-5 n=5 r=.949
[2]; unit inferred
  half-life: 3.9 h
[3]
  Oxidation by Hydrogen Peroxide: Complete oxidation to the corresponding quaternary salts

## CCOC(=O)C1=CN(C)C=C(C(=O)NCCc2ccccc2)C1 [5-Carboethoxy-1-methyl-3-(N-β-phenethyl)carbamoyl-1,4-dihydropyridine]
[1]
  Kinetics of Oxidation (rate constant): 1.74 x 10^-5 n=6 r=.993
  half-life: 11.1 h
[2]
  Kinetics of Oxidation (rate constant): 1.13 x 10^-4 n=5 r=.972
  half-life: 1.7 h
[3]
  Oxidation by Hydrogen Peroxide: Complete oxidation to the corresponding quaternary salts

## CN1C=CCC(C(=O)NCCc2ccc(O)c(O)c2)=C1 [5a, 1-Methyl-3-{N-[β-(3,4-dihydroxyphenyl)-ethyl]}carbamoyl-1,4-dihydropyridine]
[4]
  substrate for COMT: do not appear to be good substrates for COMT

## CC(=O)Oc1ccc(CCNC(=O)C2=CN(C)C=CC2)cc1OC(C)=O [5b, 1-Methyl-3-(N-[6-(3,4-diacetoxyphenyl)-ethyl]}carbamoyl-1,4-dihydropyridine]
[5]
  lability to hydrolysis: labile to hydrolysis

## C[n+]1cccc(C(=O)NCCc2ccc(O)c(O)c2)c1 [6a]
Serum prolactin; by 60 and 120 min
  serum prolactin levels versus vehicle injected controls: not significantly different from vehicle injected controls
Serum prolactin; by 15 min
  effect on the serum prolactin concentrations: no significant effect
Serum prolactin; by 30 min
  reduction of serum prolactin concentrations: 67%
Anterior pituitary (AP); 2x10-^7 M
  reduction of the prolactin rate secretion: no effect
Anterior pituitary (AP); 2x10^-7M
  Prolactin release rate of the incubated AP-S: 277±32 ng/mg. h
Anterior pituitary (AP); 2x10^-8M
  effect on the rate of release of prolactin: neither DA nor 6a had any effect
  Prolactin release rate of the incubated AP-S: 386±29 ng/mg. h
[4]
  substrate for COMT: do not appear to be good substrates for COMT

## CC(=O)Oc1ccc(CCNC(=O)c2ccc[n+](C)c2)cc1OC(C)=O [6b, 1-Methyl-3-{N-[β-(3,4-diacetoxy-phenyl)ethyl]} carbamoyl-pyridinium iodide]
[5]
  lability to hydrolysis: labile to hydrolysis

## NCCc1ccc(O)c(O)c1 [DA, dopamine, reference compound]
Anterior pituitary (AP); 2x10^-7M
  Prolactin release rate of the incubated AP-S: 121±38 ng/mg. h
Anterior pituitary (AP); 2x10^-8M
  effect on the rate of release of prolactin: neither DA nor 6a had any effect
  Prolactin release rate of the incubated AP-S: 355±67 ng/mg. h
Anterior pituitary (AP); Rattus norvegicus, 1 h, 2x10-^7 M, read-out: reduction of the prolactin rate secretion
  inhibition at 0.2 µM: 57%

## CCCC(CCC)C(=O)[O-].[Na+] [sodium valproate]
[6]
  level in the blood needed to achieve the required activity: 50 to 100 µg/mL

Source: patent EP0110955B1, “BRAIN-SPECIFIC DRUG DELIVERY” (UNIVERSITY OF FLORIDA, priority 1982, dated 1983)
